The source of these data is patent US20100035896A1, “Combination of N-(3-methoxy-5-methylpyrazin-2-yl)-2-(4-[1,3,4-oxadiazol-2-yl]phenyl)pyridine-3-sulphonamide and an anti-mitotic cytotoxic agent” (ASTRAZENECA AB, priority 2004, published 2010).

Ends that are not written are not given here.

Data set [1] relates to Human ovarian tumour cell lines (OVCA 433 and HEY). Kind of data set: Apoptosis in serum-starved ovarian tumour cell lines, cell detection ELISA Plus kit. The format is cell-based. Particulars: HEY and OVCA 433 cells, 24 h serum starvation, 24 h treatment; Compound (I) 1 μM, paclitaxel 60 nM, alone or combined; FIG. 1. The source says:
To evaluate the effect of Compound (I) in combination with an anti-mitotic cytotoxic agent (paclitaxel) on the growth of various carcinoma cells, we utilised two established human ovarian cell lines (HEY and OVCA 433**) which express functional endothelin A (ETa) receptors and secrete high levels of endothelin-1 (ET-1). ET-1 is an anti-apoptotic factor in many cell types, having this effect via ETa receptors. ** OVCA 433 was established from ascites obtained from a patient with advanced serous ovarian adenocarcinoma (Tsa, S W et al., (1995) Exp. Cell Res. 218: 499-507) and HEY was derived from a xenograft of a peritoneal deposit of a cystoadeonocarcinoma of the ovary (Buick, R. N. et al., (1985) Cancer Research 45: 3668-3676). PPC-1 cells were originally derived from a human prostate tumour and were obtained from the laboratory of Dr. J. Nelson, University of Pittsburgh). In vitro studies in ovarian cells: Human ovarian tumour cell lines (OVCA 433 and HEY) were maintained in culture media containing serum until sufficient numbers were available for experimentation. […] Following treatment for 24 hours, apoptosis was measured by a standard cell detection ELISA Plus kit (Boehringer Manheim). […] At the end of this 24 hour period, viable cell numbers were measured by a standard MTT assay (Mossman, J Inmunol Methods. (1983) 65, 55-63). […]
For orientation: ELISA stands for enzyme-linked immunosorbent assay.

For data set [2], the system named is Human prostate tumour cells (PPC-1). Kind of data set: Viable cell numbers of prostate tumour cells by MTT assay. The format is cell-based. Particulars: PPC-1 cells, FIG. 3; for numbers of viable prostate cells remaining in culture: cytotoxic alone at 10^-6, 10^-8 or 10^-10 M for 24 hours. The source says:
** OVCA 433 was established from ascites obtained from a patient with advanced serous ovarian adenocarcinoma (Tsa, S W et al., (1995) Exp. Cell Res. 218: 499-507) and HEY was derived from a xenograft of a peritoneal deposit of a cystoadeonocarcinoma of the ovary (Buick, R. N. et al., (1985) Cancer Research 45: 3668-3676). PPC-1 cells were originally derived from a human prostate tumour and were obtained from the laboratory of Dr. J. Nelson, University of Pittsburgh).
(§1) In vitro studies in ovarian cells: Human ovarian tumour cell lines (OVCA 433 and HEY) were maintained in culture media containing serum until sufficient numbers were available for experimentation. At this time the cells were transferred into media without serum. After 24 hours of serum starvation, cells were treated with either Compound (I) (1 μM) or paclitaxel (60 nM), or Compound (I)+paclitaxel. Following treatment for 24 hours, apoptosis was measured by a standard cell detection ELISA Plus kit (Boehringer Manheim). In vitro studies in prostate cells: Human prostate tumour cells (PPC-1) were maintained in culture medium containing serum until sufficient numbers were available for experimentation. After this time cells were transferred into media without serum. After 23 hours of serum starvation cells were treated with either endothelin 1 (10^−7M) or endothelin 1+Compound (I) at 10^−7M. An additional group of cells received vehicle control alone. One hour later cells were treated with paclitaxel or docetaxel at either 10^−6M, 10^−8M or 10^−10M for 24 hours. At the end of this 24 hour period, viable cell numbers were measured by a standard MTT assay (Mossman, J Inmunol Methods. (1983) 65, 55-63). In vivo studies: Athymic mice were given subcutaneous injections of 1.5×10^6 HEY cells into the flank. After 7 days, when established tumours had formed, mice were randomized to 4 treatment groups with 10 mice in each group. One group was treated with Compound (I) given by daily intraperitoneal injections (10 mg/kg/day) for 21 days. A second group received intravenous injections of paclitaxel (20 mg/kg) every 4 days for 3 doses. A third group received both paclitaxel and Compound (I) and a fourth group was given injections in the same way using vehicle alone. The experiments were replicated three times.
On the technique in general: Formazan colour is commonly taken as a measure of viable cells.

Data set [3] concerns HEY ovarian cell xenografts. Kind of data set: Growth of subcutaneous HEY ovarian carcinoma xenografts in athymic mice. To be noted: Compound (I) 10 mg/kg/day i.p. for 21 days, paclitaxel 20 mg/kg i.v. every 4 days for 3 doses, alone or both, FIG. 2. Format: in vivo. The procedure:
as §1, with “After 7 days, when established tumours had formed, mice were randomized to 4 treatment groups with 10 mice in each group. One group was treated with Compound (I) given by daily intraperitoneal injections (10 mg/kg/day) for 21 days. A second group received intravenous injections of paclitaxel (20 mg/kg) every 4 days for 3 doses. A third group received both paclitaxel and Compound (I) and a fourth group was given injections in the same way using vehicle alone. The experiments were replicated three times.” left out

As for `COc1nc(C)cnc1NS(=O)(=O)c1cccnc1-c1ccc(-c2nnco2)cc1` [Compound (I), N-(3-methoxy-5-methylpyrazin-2-yl)-2-(4-[1,3,4-oxadiazol-2-yl]phenyl)pyridine-3-sulphonamide], in data set [1], the effect on apoptosis entry was “no statistically significant effects”. The “effect on the endothelin-1 reversal of cytotoxic-induced reduction in viable cell number” value in data set [2] (endothelin 1 10^-7 M + Compound (I) 10^-7 M, one hour before paclitaxel or docetaxel) is “blocked”. The “inhibition of HEY ovarian cell xenografts (tumour growth)” value in data set [3] is reported as “significant inhibition”.

In the case of `CC(=O)O[C@@]12CO[C@@H]1C[C@H](O)[C@@]1(C)C(=O)[C@H](O)C3=C(C)[C@@H](OC(=O)[C@H](O)[C@@H](NC(=O)OC(C)(C)C)c4ccccc4)C[C@@](O)([C@@H](OC(=O)c4ccccc4)[C@H]21)C3(C)C` [docetaxel, Docetaxel], in data set [2], the “numbers of viable prostate cells remaining in culture” value is listed as “significantly reduced”.

As for `CC(=O)O[C@H]1C(=O)[C@@]2(C)[C@H]([C@H](OC(=O)c3ccccc3)[C@]3(O)C[C@H](OC(=O)[C@H](O)[C@@H](NC(=O)c4ccccc4)c4ccccc4)C(C)=C1C3(C)C)[C@]1(OC(C)=O)CO[C@@H]1C[C@@H]2O` [paclitaxel, Paclitaxel], the effect on apoptosis result in data set [1] is “no statistically significant effects”. In addition, the “numbers of viable prostate cells remaining in culture” value in data set [2] is listed as “significantly reduced”. In data set [3], the “inhibition of HEY ovarian cell xenografts (tumour growth)” value is given as “degree of inhibition was similar”.

For the molecule “endothelin-1 (CSCSSLMDKECVYFCHLDIIW; ends and bridges not checked; cysteine pairing not given here; UniProt P05305 53-73, looked up) [endogenous 21 amino acid peptide, anti-apoptotic factor acting via ETa receptors]”, the “effect on the paclitaxel- or docetaxel-induced reduction in viable cell number” value in data set [2] (endothelin 1 10^-7 M given one hour before paclitaxel or docetaxel) is “reversed”.
